Values quoted from earlier work as cited in patent US9409968B2, “Toll-like receptor-based biosensors” (University of Massachusetts, priority 2009, dated 2016).

System: lupus-prone mice
Conditions: administered to lupus-prone mice

5′-TGCTCCTGGAGGGGTTGT-3′ (listed as DNA, chemistry not given here) [IRS 954]
autoantibody production: reduction of autoantibody production
disease symptoms: amelioration of disease symptoms
